Measurements as given in ChEMBL document CHEMBL5096208, “Installation of Pargyline, a LSD1 Inhibitor, in the HDAC Inhibitory Template Culminated in the Identification of a Tractable Antiprostate Cancer Agent” (J Med Chem, 2021).

Tests used:
Histone deacetylase 4 = Histone deacetylase 4 (Homo sapiens, UniProt P56524); assay: Inhibition of human HDAC4 using Boc-Lys(trifluoroacetyl)-AMC as flurogenic substrate
Histone deacetylase 5 = Histone deacetylase 5 (Homo sapiens, UniProt Q9UQL6); assay: Inhibition of human HDAC5 using Boc-Lys(trifluoroacetyl)-AMC as flurogenic substrate
[1] = target: T1, Protein deacetylase HDAC6 (Homo sapiens, UniProt Q9UBN7); assay: Inhibition of human HDAC6 (379 to 382 residues) using RHKKAc as flurogenic substrate
T1 sequence (Q9UBN7 whole entry): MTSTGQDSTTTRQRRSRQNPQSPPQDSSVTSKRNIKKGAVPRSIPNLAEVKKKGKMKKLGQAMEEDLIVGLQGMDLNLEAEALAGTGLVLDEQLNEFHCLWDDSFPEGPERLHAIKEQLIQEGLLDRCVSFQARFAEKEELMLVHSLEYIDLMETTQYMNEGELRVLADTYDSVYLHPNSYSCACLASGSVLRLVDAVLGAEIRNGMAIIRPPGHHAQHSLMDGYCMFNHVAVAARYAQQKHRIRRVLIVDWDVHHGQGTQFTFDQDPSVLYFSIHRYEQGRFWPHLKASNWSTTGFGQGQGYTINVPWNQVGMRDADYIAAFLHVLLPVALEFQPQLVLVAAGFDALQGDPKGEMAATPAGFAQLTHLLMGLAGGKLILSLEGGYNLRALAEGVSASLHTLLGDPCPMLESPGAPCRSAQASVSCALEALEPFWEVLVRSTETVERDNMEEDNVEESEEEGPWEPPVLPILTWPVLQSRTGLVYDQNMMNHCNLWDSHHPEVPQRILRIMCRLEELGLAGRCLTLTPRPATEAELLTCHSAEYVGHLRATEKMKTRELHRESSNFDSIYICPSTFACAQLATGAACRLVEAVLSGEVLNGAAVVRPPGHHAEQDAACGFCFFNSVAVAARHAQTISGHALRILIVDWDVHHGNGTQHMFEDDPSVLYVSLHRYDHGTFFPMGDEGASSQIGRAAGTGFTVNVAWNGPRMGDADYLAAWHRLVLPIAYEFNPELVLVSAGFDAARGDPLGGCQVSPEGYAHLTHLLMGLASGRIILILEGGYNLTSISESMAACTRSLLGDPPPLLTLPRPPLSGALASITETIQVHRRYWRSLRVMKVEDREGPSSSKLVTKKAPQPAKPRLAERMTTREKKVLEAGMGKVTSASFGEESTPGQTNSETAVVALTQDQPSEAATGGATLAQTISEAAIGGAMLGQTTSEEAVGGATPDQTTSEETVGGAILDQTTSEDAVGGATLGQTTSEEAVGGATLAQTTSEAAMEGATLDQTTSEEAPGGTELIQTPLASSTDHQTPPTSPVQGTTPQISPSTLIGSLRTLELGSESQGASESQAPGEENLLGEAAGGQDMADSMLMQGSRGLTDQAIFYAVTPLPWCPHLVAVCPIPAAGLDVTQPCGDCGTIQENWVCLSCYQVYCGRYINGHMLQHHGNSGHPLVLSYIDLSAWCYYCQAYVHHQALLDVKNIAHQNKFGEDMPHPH

Histone deacetylase 9 = Histone deacetylase 9 (Homo sapiens, UniProt Q9UKV0); assay: Inhibition of human HDAC9 using Boc-Lys(trifluoroacetyl)-AMC as flurogenic substrate
Homo sapiens [2] = species on record: Homo sapiens; assay: Selectivity ratio of IC50 for human HDAC4 to IC50 for human HDAC6
Homo sapiens [3] = species on record: Homo sapiens; assay: Selectivity ratio of IC50 for human HDAC5 to IC50 for human HDAC6
Homo sapiens [4] = species on record: Homo sapiens; assay: Selectivity ratio of IC50 for human HDAC9 to IC50 for human HDAC6
Homo sapiens [5] = species on record: Homo sapiens; assay: Selectivity ratio of IC50 for human HDAC10 to IC50 for human HDAC6
[6] = C0 in Sprague-Dawley rat at 2 mg/kg, iv administered as single dose through tail vein measured upto 24 hrs post dose by UPLC-MS/MS analysis; type: ADME, organism-based; conditions: in vivo
[7] = Half life in Sprague-Dawley rat at 2 mg/kg, iv administered as single dose through tail vein measured upto 24 hrs post dose by UPLC-MS/MS analysis; type: ADME, organism-based; conditions: in vivo
[8] = Volume of distribution at steady state in Sprague-Dawley rat at 2 mg/kg, iv administered as single dose through tail vein measured upto 24 hrs post dose by UPLC-MS/MS analysis; type: ADME, organism-based; conditions: in vivo, read-out: Vdss
[9] = Cmax in Sprague-Dawley rat at 25 mg/kg, po administered once via gavage measured upto 24 hrs post dose by UPLC-MS/MS analysis; type: ADME, organism-based; parameters: dose 25 mg/kg, time < 24 hrs, route po; conditions: in vivo
[10] = AUC (0 to 24 hrs) in Sprague-Dawley rat at 25 mg/kg, po administered once via gavage measured upto 24 hrs post dose by UPLC-MS/MS analysis; type: ADME, organism-based; parameters: dose 25 mg/kg, time < 24 hrs, route po; conditions: in vivo
[11] = Cmax in Sprague-Dawley rat at 25 mg/kg, po formulated using SMEDDS administered once via gavage measured upto 24 hrs post dose by UPLC-MS/MS analysis; type: ADME, organism-based; parameters: dose 25 mg/kg, time < 24 hrs, route po; conditions: in vivo
[12] = Half life in Sprague-Dawley rat at 25 mg/kg, po formulated using SMEDDS administered once via gavage measured upto 24 hrs post dose by UPLC-MS/MS analysis; type: ADME, organism-based; conditions: in vivo
[13] = AUC (0 to 24 hrs) in Sprague-Dawley rat at 25 mg/kg, po formulated using SMEDDS administered once via gavage measured upto 24 hrs post dose by UPLC-MS/MS analysis; type: ADME, organism-based; parameters: dose 25 mg/kg, time < 24 hrs, route po; conditions: in vivo
[14] = Metabolic stability in Sprague-Dawley rat hepatocyte assessed as parent compound remaining at 10 uM incubated for 60 mins by LC-MS/MS analysis; type: ADME, cell-based; conditions: hepatocytes, read-out: Stability
[15] = Metabolic stability in Sprague-Dawley rat hepatocyte assessed as parent compound remaining at 10 uM incubated for 120 mins by LC-MS/MS analysis; type: ADME, cell-based; conditions: hepatocytes, read-out: Stability
[16] = Metabolic stability in Sprague-Dawley rat hepatocyte assessed as parent compound remaining at 10 uM incubated for 240 mins by LC-MS/MS analysis; type: ADME, cell-based; conditions: hepatocytes, read-out: Stability
[17] = Metabolic stability in Beagle dog hepatocyte assessed as parent compound remaining at 10 uM by LC-MS/MS analysis; type: ADME, cell-based, Canis lupus familiaris; conditions: hepatocytes, read-out: Stability
[18] = Metabolic stability in Beagle dog hepatocyte assessed as parent compound remaining at 10 uM incubated for 120 mins by LC-MS/MS analysis; type: ADME, cell-based, Canis lupus familiaris; conditions: hepatocytes, read-out: Stability
[19] = Metabolic stability in human hepatocyte assessed as parent compound remaining at 10 uM incubated for 30 mins by LC-MS/MS analysis; type: ADME, cell-based; conditions: hepatocytes, read-out: Stability
[20] = Metabolic stability in human hepatocyte assessed as parent compound remaining at 10 uM incubated for 60 mins by LC-MS/MS analysis; type: ADME, cell-based; conditions: hepatocytes, read-out: Stability
[21] = Metabolic stability in human hepatocyte assessed as parent compound remaining at 10 uM incubated for 120 mins by LC-MS/MS analysis; type: ADME, cell-based; conditions: hepatocytes, read-out: Stability
DU-145 [22] = assay: Antitumor activity against human DU-145 cells xenografted in athymic nude mouse assessed as tumor growth inhibition at 50 mg/kg, po qd measured upto 60 days by caliper method relative to control; type: functional; conditions: DU-145, 1440 h, time <= 60 day, read-out: TGI
DU-145 [23] = assay: Antitumor activity against human DU-145 cells xenografted in athymic nude mouse assessed as tumor growth inhibition at 200 mg/kg, po administered twice daily and measured upto 60 days by caliper method relative to control; type: functional; conditions: DU-145, 1440 h, time <= 60 day, read-out: TGI

Histone deacetylase 5, sequence (Q9UQL6 whole entry, the tested form may be a part): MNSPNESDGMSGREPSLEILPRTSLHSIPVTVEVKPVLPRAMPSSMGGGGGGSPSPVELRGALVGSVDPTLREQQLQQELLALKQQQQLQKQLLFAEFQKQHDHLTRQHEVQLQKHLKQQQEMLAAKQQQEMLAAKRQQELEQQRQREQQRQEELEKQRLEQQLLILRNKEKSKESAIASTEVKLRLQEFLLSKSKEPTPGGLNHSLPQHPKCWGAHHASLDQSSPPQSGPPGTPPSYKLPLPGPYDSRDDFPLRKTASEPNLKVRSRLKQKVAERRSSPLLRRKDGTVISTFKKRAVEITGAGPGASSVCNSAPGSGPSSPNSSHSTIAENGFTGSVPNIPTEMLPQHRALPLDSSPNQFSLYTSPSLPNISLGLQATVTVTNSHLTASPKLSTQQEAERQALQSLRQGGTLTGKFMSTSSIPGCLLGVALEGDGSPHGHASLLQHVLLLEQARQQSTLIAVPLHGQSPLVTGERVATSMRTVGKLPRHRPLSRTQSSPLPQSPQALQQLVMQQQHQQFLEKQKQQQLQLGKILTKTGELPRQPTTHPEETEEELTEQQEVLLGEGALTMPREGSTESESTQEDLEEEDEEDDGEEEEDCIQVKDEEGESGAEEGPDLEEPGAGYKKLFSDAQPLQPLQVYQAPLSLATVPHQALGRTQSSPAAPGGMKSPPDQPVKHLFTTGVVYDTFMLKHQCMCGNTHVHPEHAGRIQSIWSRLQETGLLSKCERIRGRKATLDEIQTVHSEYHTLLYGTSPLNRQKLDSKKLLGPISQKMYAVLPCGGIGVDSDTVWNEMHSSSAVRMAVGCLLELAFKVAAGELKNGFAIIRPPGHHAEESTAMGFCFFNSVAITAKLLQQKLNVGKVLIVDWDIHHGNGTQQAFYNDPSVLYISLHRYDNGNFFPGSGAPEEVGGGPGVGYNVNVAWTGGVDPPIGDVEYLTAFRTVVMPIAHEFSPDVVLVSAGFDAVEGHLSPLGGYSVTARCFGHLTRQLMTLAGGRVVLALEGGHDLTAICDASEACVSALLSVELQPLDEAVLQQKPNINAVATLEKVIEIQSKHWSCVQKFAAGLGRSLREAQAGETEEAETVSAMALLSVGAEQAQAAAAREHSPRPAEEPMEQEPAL
Histone deacetylase 4, sequence (P56524 whole entry): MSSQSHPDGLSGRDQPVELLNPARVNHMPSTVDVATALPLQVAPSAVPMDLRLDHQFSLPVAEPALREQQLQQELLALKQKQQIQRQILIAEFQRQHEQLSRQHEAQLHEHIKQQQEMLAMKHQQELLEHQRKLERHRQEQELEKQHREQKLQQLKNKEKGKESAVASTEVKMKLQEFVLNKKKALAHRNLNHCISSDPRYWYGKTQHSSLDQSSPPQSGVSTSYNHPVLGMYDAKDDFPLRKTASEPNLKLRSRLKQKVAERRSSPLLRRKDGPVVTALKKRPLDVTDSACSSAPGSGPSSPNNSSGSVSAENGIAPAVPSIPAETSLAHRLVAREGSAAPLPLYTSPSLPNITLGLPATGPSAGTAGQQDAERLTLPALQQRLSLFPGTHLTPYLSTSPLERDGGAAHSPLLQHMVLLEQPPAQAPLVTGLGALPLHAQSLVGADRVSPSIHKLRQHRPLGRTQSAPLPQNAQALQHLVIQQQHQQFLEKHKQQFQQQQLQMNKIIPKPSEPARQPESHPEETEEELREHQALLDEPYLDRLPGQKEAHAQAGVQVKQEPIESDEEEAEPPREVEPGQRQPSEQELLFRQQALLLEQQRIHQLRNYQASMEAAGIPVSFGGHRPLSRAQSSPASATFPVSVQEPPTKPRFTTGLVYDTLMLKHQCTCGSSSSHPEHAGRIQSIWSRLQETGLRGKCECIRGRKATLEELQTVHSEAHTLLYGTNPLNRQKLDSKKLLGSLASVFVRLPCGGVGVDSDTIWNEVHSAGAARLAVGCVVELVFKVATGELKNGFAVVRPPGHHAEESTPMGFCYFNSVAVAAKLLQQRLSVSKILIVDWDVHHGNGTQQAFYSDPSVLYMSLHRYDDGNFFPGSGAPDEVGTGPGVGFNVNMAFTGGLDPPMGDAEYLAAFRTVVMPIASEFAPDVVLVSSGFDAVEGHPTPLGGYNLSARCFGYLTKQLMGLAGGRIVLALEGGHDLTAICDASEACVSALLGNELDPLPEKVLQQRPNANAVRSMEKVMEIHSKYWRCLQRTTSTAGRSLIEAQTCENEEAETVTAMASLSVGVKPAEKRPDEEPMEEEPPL
Histone deacetylase 9, sequence (Q9UKV0 whole entry): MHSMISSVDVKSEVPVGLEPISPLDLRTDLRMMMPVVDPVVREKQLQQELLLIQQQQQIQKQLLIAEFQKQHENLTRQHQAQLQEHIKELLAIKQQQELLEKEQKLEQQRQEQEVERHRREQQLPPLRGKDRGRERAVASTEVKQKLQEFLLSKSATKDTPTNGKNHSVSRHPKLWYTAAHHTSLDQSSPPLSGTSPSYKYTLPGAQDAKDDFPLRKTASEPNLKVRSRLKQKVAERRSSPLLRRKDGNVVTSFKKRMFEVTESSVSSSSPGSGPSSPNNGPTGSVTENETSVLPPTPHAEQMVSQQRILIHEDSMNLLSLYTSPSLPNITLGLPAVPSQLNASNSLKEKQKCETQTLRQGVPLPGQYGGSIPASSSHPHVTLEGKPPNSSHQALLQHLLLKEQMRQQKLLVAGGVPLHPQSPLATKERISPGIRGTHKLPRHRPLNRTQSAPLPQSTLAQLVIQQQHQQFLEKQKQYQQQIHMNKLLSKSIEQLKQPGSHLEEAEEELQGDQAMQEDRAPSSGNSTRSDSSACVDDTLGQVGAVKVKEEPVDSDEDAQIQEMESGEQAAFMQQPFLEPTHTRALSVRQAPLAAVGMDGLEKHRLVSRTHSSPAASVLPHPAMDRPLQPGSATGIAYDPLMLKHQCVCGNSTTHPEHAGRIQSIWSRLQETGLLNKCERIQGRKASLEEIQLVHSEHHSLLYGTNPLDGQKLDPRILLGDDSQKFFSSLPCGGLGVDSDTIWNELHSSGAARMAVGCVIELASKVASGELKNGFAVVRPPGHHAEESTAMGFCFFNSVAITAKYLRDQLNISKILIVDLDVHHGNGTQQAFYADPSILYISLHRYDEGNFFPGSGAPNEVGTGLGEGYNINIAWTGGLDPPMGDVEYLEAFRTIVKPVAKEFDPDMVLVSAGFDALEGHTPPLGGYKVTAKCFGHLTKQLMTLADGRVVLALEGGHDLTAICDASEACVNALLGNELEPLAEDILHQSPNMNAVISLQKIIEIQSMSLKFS

`C#CCN(C)Cc1cccc(NC(=O)CCCCCCC(=O)NO)c1` gave an IC50 (Histone deacetylase 4) greater than 10 µM, an IC50 (Histone deacetylase 5) of 13.4 µM and an IC50 [1] of 0.02 µM. The IC50 (Histone deacetylase 9) was greater than 10 µM, the Ratio IC50 (Homo sapiens [2]) was greater than 500 and the Ratio IC50 (Homo sapiens [3]) was 670. For the same compound, the Ratio IC50 (Homo sapiens [4]) was greater than 500, the Ratio IC50 (Homo sapiens [5]) was 18.7 and the C0 at 24 h [6] was 38.1 ng/mL. The half-life [7] was 8.1 h, the Vd [8] was 247 L/kg and the Cmax [9] was 74.1 ng/mL. It also gave an AUC(0-t) at 24 h [10] of 108 ng·h/mL, a Cmax [11] of 257 ng/mL and a half-life [12] of 4.3 h. The AUC(0-t) at 24 h [13] was 587 ng·h/mL, the remaining at 1 h, 10 µM [14] was 52.5% and the remaining at 2 h, 10 µM [15] was 35.9%. It also gave a remaining at 4 h, 10 µM [16] of 15.9%, a remaining at 10 µM [17] of 100% and a remaining at 2 h, 10 µM [18] of 66.7%. It also gave a remaining at 0.5 h, 10 µM [19] of 103%, a remaining at 1 h, 10 µM [20] of 102% and a remaining at 2 h, 10 µM [21] of 95.5%. For the same compound, the inhibition in vivo at 50 mg/kg (DU-145 [22]) was 65.8% and the inhibition in vivo at 200 mg/kg (DU-145 [23]) was 80.8%.
